Data reported in EP2826473A1, “NOVEL USE OF PATCHOULOL” (Chengdu Huasun Group Inc., Ltd., priority 2012, dated 2013).
Counter-ions that a name gives are not always drawn. Like-named read-outs stand apart in the source and are kept apart here.

Experiments:
Type in all cases: cell-based
[1] = tested on: Staphylococcus epidermidis ATCC 12228; assay: in vitro bacteriostatic activity, agar dilution MIC, quality control strain; settings: Staphylococcus epidermidis, ATCC12228
Enterococcus faecium = assay: in vitro bacteriostatic activity, agar dilution MIC; settings: Enterococcus faecium, read-out: MIC
Staphylococcus aureus = assay: in vitro bacteriostatic activity, agar dilution MIC, quality control strains; settings: ATCC25923; Staphylococcus aureus ATCC 25923; read-out: MIC
Klebsiella pneumonia E^- = assay: in vitro bacteriostatic activity, agar dilution MIC
Escherichia coli = assay: in vitro bacteriostatic activity, agar dilution MIC, quality control strain and summary; settings: ATCC25922; Escherichia coli ATCC 25922; read-out: MIC
[2] = tested on: Staphylococcus aureus MRSA; assay: in vitro bacteriostatic activity, agar dilution MIC; settings: MRSA
[3] = tested on: Staphylococcus epidermidis MSSE; assay: as above
Klebsiella pneumonia E^+ = assay: as above; settings: Klebsiella pneumoniae
Klebsiella pneumonia = assay: in vitro bacteriostatic activity, agar dilution MIC, quality control strain and summary; settings: Klebsiella pneumoniae, ATCC700603; Klebsiella pneumonia ATCC 700603; read-out: MIC
Escherichia coli E^- = assay: in vitro bacteriostatic activity, agar dilution MIC
[4] = tested on: Staphylococcus epidermidis MRSE; assay: as above
Streptococcus pneumoniae = assay: as above
[5] = tested on: Staphylococcus aureus MSSA; assay: as above; settings: Staphylococcus aureus, MSSA
Enterococcus faecalis = assay: as above; settings: Enterococcus faecalis, read-out: MIC

Question: For `C[C@H]1COc2c(N3CCN(C)CC3)c(F)cc3c(=O)c(C(=O)O)cn1c23` [levofloxacin, Levofloxacin hydrochloride], which MIC [1] is on record?
Answer: 0.125 µg/mL

Question: What about the MIC (Enterococcus faecium; ATCC33186, Enterococcus faecium ATCC 33186) of the same molecule?
Answer: 1 µg/mL

Question: And the MIC (Enterococcus faecium; Enterococcus faecium 12-7)?
Answer: 32 µg/mL

Question: And the MIC (Enterococcus faecium; Enterococcus faecium 12-8)?
Answer: 64 µg/mL

Question: What about the MIC (Enterococcus faecium; Enterococcus faecium 12-9) of the same molecule?
Answer: 32 µg/mL

Question: What about the MIC (Enterococcus faecium; Enterococcus faecium 12-10) of the same molecule?
Answer: 32 µg/mL

Question: What about the MIC (Enterococcus faecium; Enterococcus faecium 12-11) of the same molecule?
Answer: 32 µg/mL

Question: What about the MIC (Enterococcus faecium; Enterococcus faecium 12-12) of the same molecule?
Answer: 64 µg/mL

Question: And the MIC (Enterococcus faecium; Enterococcus faecium 12-13)?
Answer: 64 µg/mL

Question: And the MIC (Enterococcus faecium; Enterococcus faecium 12-14)?
Answer: 32 µg/mL

Question: And the MIC (Enterococcus faecium; Enterococcus faecium 12-15)?
Answer: 32 µg/mL

Question: What about the MIC (Enterococcus faecium; Enterococcus faecium 12-16) of the same molecule?
Answer: 64 µg/mL

Question: What about the MIC (Staphylococcus aureus) of the same molecule?
Answer: 0.1 µg/mL

Question: What about the MIC (Klebsiella pneumonia E^-; Klebsiella pneumonia E^- 10-18) of the same molecule?
Answer: 0.025 µg/mL

Question: And the MIC (Klebsiella pneumonia E^-; Klebsiella pneumoniae, Klebsiella pneumonia E^- 10-16, read-out: MIC)?
Answer: 0.025 µg/mL

Question: And the MIC (Escherichia coli)?
Answer: < 0.006 µg/mL

Question: What about the MIC ([2]; Staphylococcus aureus MRSA 10-31, read-out: MIC) of the same molecule?
Answer: 25 µg/mL

Question: And the MIC ([2]; Staphylococcus aureus MRSA 10-32, read-out: MIC)?
Answer: 12.5 µg/mL

Question: What about the MIC ([3]; Staphylococcus epidermidis) of the same molecule?
Answer: 0.125 µg/mL

Question: And the MIC ([3]; Staphylococcus epidermidis MSSE 12-12)?
Answer: 0.125 µg/mL

Question: And the MIC ([3]; Staphylococcus epidermidis MSSE 12-16)?
Answer: 0.125 µg/mL

Question: What about the MIC ([3]; Staphylococcus epidermidis, Staphylococcus epidermidis MSSE 10-43, read-out: MIC) of the same molecule?
Answer: 0.1 µg/mL

Question: What about the MIC ([3]; Staphylococcus epidermidis, Staphylococcus epidermidis MSSE 10-44, read-out: MIC) of the same molecule?
Answer: 3.1 µg/mL

Question: What about the MIC ([3]; Staphylococcus epidermidis, Staphylococcus epidermidis MSSE 12-13, read-out: MIC) of the same molecule?
Answer: 0.5 µg/mL

Question: And the MIC ([3]; Staphylococcus epidermidis, Staphylococcus epidermidis MSSE 12-14, read-out: MIC)?
Answer: 0.5 µg/mL

Question: And the MIC ([3]; Staphylococcus epidermidis, Staphylococcus epidermidis MSSE 12-15, read-out: MIC)?
Answer: 0.5 µg/mL

Question: And the MIC ([3]; Staphylococcus epidermidis, Staphylococcus epidermidis MSSE 12-17, read-out: MIC)?
Answer: 0.5 µg/mL

Question: What about the MIC ([3]; Staphylococcus epidermidis, Staphylococcus epidermidis MSSE 12-18, read-out: MIC) of the same molecule?
Answer: 1 µg/mL

Question: And the MIC ([3]; Staphylococcus epidermidis, Staphylococcus epidermidis MSSE 12-19, read-out: MIC)?
Answer: 0.5 µg/mL

Question: What about the MIC ([3]; Staphylococcus epidermidis, Staphylococcus epidermidis MSSE 12-20, read-out: MIC) of the same molecule?
Answer: 1 µg/mL

Question: What about the MIC (Klebsiella pneumonia E^+; Klebsiella pneumonia E^+ 10-2) of the same molecule?
Answer: 12.5 µg/mL

Question: What about the MIC (Klebsiella pneumonia E^+; Klebsiella pneumonia E^+ 10-6) of the same molecule?
Answer: 0.0125 µg/mL

Question: And the MIC (Klebsiella pneumonia)?
Answer: 0.39 µg/mL

Question: And the MIC (Escherichia coli E^-; Escherichia coli E^- 10-12)?
Answer: 0.1 µg/mL

Question: And the MIC (Escherichia coli E^-; Escherichia coli E^- 10-18)?
Answer: 12.5 µg/mL

Question: And the MIC ([4]; Staphylococcus epidermidis MRSE 10-40, read-out: MIC)?
Answer: 0.1 µg/mL

Question: And the MIC ([4]; Staphylococcus epidermidis MRSE 10-44, read-out: MIC)?
Answer: 3.1 µg/mL

Question: What about the MIC (Streptococcus pneumoniae; ATCC49619, Streptococcus pneumonia ATCC 49619) of the same molecule?
Answer: 0.1 µg/mL

Question: What about the MIC (Streptococcus pneumoniae; Streptococcus pneumonia 12-6) of the same molecule?
Answer: 25 µg/mL

Question: What about the MIC (Streptococcus pneumoniae; Streptococcus pneumonia 12-7) of the same molecule?
Answer: 12.5 µg/mL

Question: And the MIC (Streptococcus pneumoniae; Streptococcus pneumonia 12-8)?
Answer: 25 µg/mL

Question: And the MIC (Streptococcus pneumoniae; Streptococcus pneumonia 12-9)?
Answer: 25 µg/mL

Question: What about the MIC (Streptococcus pneumoniae; Streptococcus pneumonia 12-10) of the same molecule?
Answer: 12.5 µg/mL

Question: And the MIC (Streptococcus pneumoniae; Streptococcus pneumoniae 12-1)?
Answer: 12.5 µg/mL

Question: What about the MIC (Streptococcus pneumoniae; Streptococcus pneumoniae 12-2) of the same molecule?
Answer: 25 µg/mL

Question: What about the MIC (Streptococcus pneumoniae; Streptococcus pneumoniae 12-3) of the same molecule?
Answer: 25 µg/mL

Question: What about the MIC (Streptococcus pneumoniae; Streptococcus pneumoniae 12-4) of the same molecule?
Answer: 25 µg/mL

Question: What about the MIC (Streptococcus pneumoniae; Streptococcus pneumoniae 12-5) of the same molecule?
Answer: 25 µg/mL

Question: What about the MIC ([5]; Staphylococcus aureus MSSA 10-38, read-out: MIC) of the same molecule?
Answer: 0.1 µg/mL

Question: What about the MIC ([5]; Staphylococcus aureus MSSA 10-40, read-out: MIC) of the same molecule?
Answer: 0.1 µg/mL

Question: And the MIC ([5]; Staphylococcus aureus MSSA 10-41, read-out: MIC)?
Answer: 0.1 µg/mL

Question: What about the MIC ([5]; Staphylococcus aureus MSSA 12-11) of the same molecule?
Answer: 0.125 µg/mL

Question: And the MIC ([5]; Staphylococcus aureus MSSA 12-13)?
Answer: 0.125 µg/mL

Question: What about the MIC ([5]; Staphylococcus aureus MSSA 12-14) of the same molecule?
Answer: 0.125 µg/mL

Question: And the MIC ([5]; Staphylococcus aureus MSSA 12-15)?
Answer: 0.125 µg/mL

Question: And the MIC ([5]; Staphylococcus aureus MSSA 12-16, read-out: MIC)?
Answer: 0.06 µg/mL

Question: What about the MIC ([5]; Staphylococcus aureus MSSA 12-17, read-out: MIC) of the same molecule?
Answer: 0.06 µg/mL

Question: And the MIC ([5]; Staphylococcus aureus MSSA 12-18)?
Answer: 0.125 µg/mL

Question: What about the MIC ([5]; Staphylococcus aureus MSSA 12-19, read-out: MIC) of the same molecule?
Answer: 0.06 µg/mL

Question: What about the MIC ([5]; Staphylococcus aureus MSSA 12-20) of the same molecule?
Answer: 0.125 µg/mL

Question: And the MIC ([5]; Staphylococcus aureus MSSA 12-21)?
Answer: 0.125 µg/mL

Question: What about the MIC (Enterococcus faecalis; ATCC29212, Enterococcus faecalis ATCC 29212) of the same molecule?
Answer: 0.25 µg/mL

Question: And the MIC (Enterococcus faecalis; ATCC51299, Enterococcus faecalis (high endurance) ATCC 51299)?
Answer: 0.25 µg/mL

Question: What about the MIC (Enterococcus faecalis; Enterococcus faecalis 12-11) of the same molecule?
Answer: 16 µg/mL

Question: And the MIC (Enterococcus faecalis; Enterococcus faecalis 12-12)?
Answer: 32 µg/mL

Question: What about the MIC (Enterococcus faecalis; Enterococcus faecalis 12-13) of the same molecule?
Answer: 8 µg/mL

Question: And the MIC (Enterococcus faecalis; Enterococcus faecalis 12-14)?
Answer: 64 µg/mL

Question: What about the MIC (Enterococcus faecalis; Enterococcus faecalis 12-17) of the same molecule?
Answer: 0.5 µg/mL

Question: What about the MIC (Enterococcus faecalis; Enterococcus faecalis 12-18) of the same molecule?
Answer: 0.5 µg/mL

Question: What about the MIC (Enterococcus faecalis; Enterococcus faecalis 12-19) of the same molecule?
Answer: 32 µg/mL

Question: And the MIC (Enterococcus faecalis; Enterococcus faecalis 12-20)?
Answer: 4 µg/mL

Question: And the MIC (Enterococcus faecalis; Enterococcus faecalis 12-21)?
Answer: 4 µg/mL

Question: What about the MIC (Enterococcus faecalis; Enterococcus faecalis 12-22) of the same molecule?
Answer: 8 µg/mL
